These are literature values, as cited in patent US20260116844A1, “LIPID NANOPARTICLE FORMULATION COMPRISING IONIZED LIPIDS WITH BRANCHED STRUCTURE, AND USE THEREOF” (SurgiNex Co., Ltd., priority 2022, published 2026).

This series deals with blood coagulation factor FVII.

What is called ED50 is the midpoint of the dose-response relation. Turning to `CCCCC/C=C\C/C=C\CCCCCCCCC(CCCCCCCC/C=C\C/C=C\CCCCC)OC(=O)CCCN(C)C` [Dlin-MC3-DMA], the ED50 (mouse FVII model, siRNA delivery) is 5 µg/kg. The “times more effective than existing ionized lipids” value (mouse, in vivo) is recorded as “approximately 1000 times”.
